From the supplement of paper PMC8837787 come the findings set out here.

This assay has as its system Saccharomyces cerevisiae ABC16-Green Monster. Put plainly: growth inhibition at single dose (up to 150 µM), below the 70% cut-off for dose-response; higher = more potent. The conditions noted are these: 18 h; 30 °C; YPD. The method, boiled down:
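Percent growth inhibition is the reported value. Drug-sensitive S. cerevisiae ABC16-Green Monster cultures in log phase (OD600 0.1–0.2), 200 µl per well in 96-well plates, received each library compound once at 150 µM in biological duplicates, with untreated cultures run alongside. Growth was followed by OD600 at 0 h and after 18 h at 30 °C. Dose-response was not done for compounds below 70% in both replicates.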

On to `COc1cc(OC)cc(N2C(=O)N(Cc3ccc(C(C)(C)C)cc3)c3ccccc3S2(=O)=O)c1`, for which the “growth inhibition at single dose” value is less than 70%. Then `FC(F)(F)c1cnc(Sc2nnc(-c3ccncc3)o2)c(Cl)c1`, with less than 70%; and `O=C(NCCc1ccn(-c2ccccc2)n1)C1CCCCC1`, with less than 70%; and `COc1ccc(CCN2CCC(NCc3cccc(N(C)C)c3)CC2)cc1`, with less than 70%. Then `Cc1cc(N2CCN(CCO)CC2)n2ncc(-c3ccc(F)cc3)c2n1`, with less than 70%; and `Cc1ccc(NC(=O)c2nc[nH]c2C(=O)Nc2nc3ccccc3[nH]2)c(C)c1`, with less than 70%; and `COc1ccc2c(=O)cc(C(Cl)(Cl)Cl)oc2c1`, with less than 70%.

As to `CC(C)Cc1ccc(C(C)c2nn3c(-c4ccco4)nnc3s2)cc1` (stereo not given), the “growth inhibition at single dose” value was less than 70%. The figure for `O=C(CCc1ccccc1)c1ccccc1OCC(O)CN1CCCCC1` (stereo not given) is less than 70%; for `CN1CCN(S(=O)(=O)c2ccc(-c3ccc4c(Nc5ccc6nn[nH]c6c5)ccnc4c3)cc2)CC1` it is less than 70%; for `Cc1cc(C(=O)COC(=O)c2[nH]nc3ccccc23)c(C)n1CC1CCCO1` (stereo not given) it is less than 70%. Consider `CC1CN(C(=O)c2sc3ccccc3c2Cl)CC(C)O1` (stereo not given), for which the “growth inhibition at single dose” value is less than 70%. The figure for `c1ccc2sc(-c3nc4ccccc4s3)nc2c1` is less than 70%. On to `COC(=O)CCSc1c2ccc(Cl)cc2nc2ccc(OC)cc12`, for which the “growth inhibition at single dose” value was less than 70%. Then `O=S(=O)(c1ccc(Cl)cc1)N1CCN(C(=S)NCc2ccco2)CC1`, with less than 70%. Then `O=C1N/C(=N\C2CCCC2)S/C1=C\c1ccc2c(c1)OCCO2`, with less than 70%; and `N#Cc1ccc(NC(=O)Nc2ccc(C#N)cc2)cc1`, with less than 70%; and `Cc1ccc(NS(=O)(=O)c2ccc(C(=O)Nc3ncccc3O)cc2)cc1C`, with less than 70%.

Turning to `O=C(NC1CC1)c1ccc(CN(Cc2ccco2)Cc2nc(-c3ccc(F)cc3)no2)cc1`, the “growth inhibition at single dose” value was less than 70%. Then `CCNC(=O)C(C)NC(=O)c1cc(-c2ccccc2)nc2c1cnn2Cc1ccccc1Cl` (stereo not given), with less than 70%; and `O=C(NC1CCCCC1)N1CCN(Cc2ccc3c(c2)OCO3)CC1`, with less than 70%. The figure for `Cc1cccn2c(=O)cc(CN3C(=O)NC(C)(c4ccc(F)cc4)C3=O)nc12` (stereo not given) is less than 70%; for `Cc1ccc(C2CC(C(F)(F)F)n3nc(C(=O)N4CCN(C(c5ccccc5)c5ccccc5)CC4)cc3N2)cc1` (stereo not given) it is less than 70%; for `CNC(=O)c1nn(C)c2c1C(C)(C)Cc1cnc(Nc3ccc(N4CCN(C)CC4)cc3)nc1-2` it is less than 70%. The figure for `CCC(=O)Nc1nnc(Cc2ccc(OC)c(OC)c2)s1` is less than 70%. `CCOC(=O)c1ccc(Oc2nc3ccccc3nc2C(C#N)C(=O)OC)cc1` (stereo not given): the “growth inhibition at single dose” value is less than 70%. Then `CCCCCC(=O)N1c2ccccc2N=C2CC(c3ccc(OC)c(OC)c3)CC(O)=C2C1c1ccc(C(F)(F)F)cc1` (stereo not given), with less than 70%; and `CCN(CC)CCCCCCNc1cc(OC)cc2c(C)ccnc12`, with less than 70%.

As for `CC(=O)C1C2C(=O)N(C(C)(C)C)C(=O)C2C2C=Cc3ccc4cccnc4c3N21` (stereo not given), the “growth inhibition at single dose” value was less than 70%. The figure for `Oc1ccccc1CNCC12CC3CC(CC(C3)C1)C2` is less than 70%. The figure for `CCc1cc(C(=O)Nc2ncccc2O)sc1C` is less than 70%. The figure for `CC(=O)N1CCc2cc(NC(=O)c3cc(C)n(C4CCCCC4)c3C)ccc21` is less than 70%; for `CC(C)(C)OC(=O)N1CCN(c2cc(-c3ccc(Oc4ccccc4)cc3)n[nH]2)CC1` it is less than 70%.

As for `C[C@H]1COc2c(N3CCN(C)CC3)c(F)cc3c(=O)c(C(=O)O)cn1c23`, the “growth inhibition at single dose” value was less than 70%. For the molecule `CC(C)OCc1cc(CN2CCN(c3cccc(Cl)c3)CC2)c(O)c2ncccc12`, the “growth inhibition at single dose” value is less than 70%. The figure for `O=C(Nc1cccc(Cl)c1)c1cnc(N2CCN(c3ccncc3)CC2)c(Cl)c1` is less than 70%. Then `CCOC(=O)C1=C(C)N=c2sc(=Cc3ccccc3O)c(=O)n2C1c1ccc(OC)c2ccccc12` (stereo not given), with less than 70%. The figure for `Nc1ncnc2c1ncn2C[C@@H](O)[C@@H](O)C(=O)O` is less than 70%; for `CCS(=O)(=O)N(Cc1ccco1)Cc1cc2ccc(C)cc2nc1O` it is less than 70%; for `CN1CCCN(C(=O)CCNC(=O)/C=C/c2ccco2)c2nc3ccccc3nc21` it is less than 70%. As to `CCc1ccccc1-n1c(C)cn2c3c(=O)n(C(C(=O)OC)C(C)C)c(=O)n(C)c3nc12` (stereo not given), the “growth inhibition at single dose” value was less than 70%.

As for `Cc1nccc(-c2cccc(N/N=C(\C#N)S(=O)(=O)c3ccccn3)c2)n1`, the “growth inhibition at single dose” value is less than 70%.

`O=C(c1ccccc1F)N(Cc1ccc(Cl)cc1)c1ccccn1`: the “growth inhibition at single dose” value was less than 70%. The figure for `CCOc1ccc(-c2nc(CC(=O)NCc3ccnc(OC)c3)cs2)cc1` is less than 70%. As for `Cc1cc(C)n2ncc(C(=O)Nc3cccc(/C=C/c4ccccn4)c3)c2n1`, the “growth inhibition at single dose” value is less than 70%. The figure for `COc1ccc2nc(C)cc(Nc3cccc(O)c3)c2c1` is less than 70%. Then `Cc1cc(Nc2ccncc2)n2nc(C)c(-c3ccccc3Cl)c2n1`, with less than 70%; and `COc1cc(-c2nc(-c3ccccc3)c(-c3ccccc3)[nH]2)cc(OC)c1O`, with less than 70%; and `CCC(=O)c1cn(S(=O)(=O)c2ccc(C)cc2)c2ccccc12`, with less than 70%. Regarding `Oc1ccc(-c2nc(-c3ccc4oc5ccc(-c6[nH]c(-c7ccc(O)cc7)nc6-c6ccccc6)cc5c4c3)c(-c3ccccc3)[nH]2)cc1`, the “growth inhibition at single dose” value is less than 70%. The figure for `c1ccc(Oc2ccc(-c3cc(N4CCOCC4)[nH]n3)cc2)cc1` is less than 70%.

With `c1coc(CNc2nc(N3CCCCC3)nc3ccccc23)c1`, the “growth inhibition at single dose” value was less than 70%. Consider `CCOc1ccccc1CN1CCc2nc3cc(C(C)(C)C)nn3c(O)c2C1`, for which the “growth inhibition at single dose” value is less than 70%. With `Cc1c(C)n(CCCO)c2ncn3nc(-c4ccccc4O)nc3c12`, the “growth inhibition at single dose” value is less than 70%. Then `CN(C)c1ccc(N2C(N)=NC(N)=NC2(C)C)cc1`, with less than 70%; and `COc1cccc(CC(=O)N2CCC(n3c(C)nc4ccc(F)cc43)CC2)c1`, with less than 70%; and `Cc1nn2c(=O)c3c([nH]c2c1-c1ccc(Cl)cc1)CCCC3`, with less than 70%. Then `COc1cccc(NC(=O)c2c(NC(=O)c3cccnc3)sc3c2CCC3)c1`, with less than 70%; and `CCOC(=O)c1c(C)nn(-c2ccc(NC(=O)c3cccs3)cc2)c1C`, with less than 70%.

As for `CN1CCN(c2ccc(Cl)cc2NC(=O)c2cccc(Oc3ccccc3)c2)CC1`, the “growth inhibition at single dose” value was less than 70%.
